Data: PubChem BioAssay (NCI)
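48-hour exposure; five concentrations; linearly interpolated endpoints. GI50 = concentration required for 50% inhibition of growth. TGI: concentration producing complete growth inhibition.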

Tests used:
Assay in all cases: NCI anticancer screen, dose series, 48 h
BT-549 breast = system: BT-549 breast
OVCAR-4 ovarian = system: OVCAR-4 ovarian
OVCAR-8 ovarian = system: OVCAR-8 ovarian
LOX IMVI melanoma = system: LOX IMVI melanoma
SK-MEL-5 melanoma = system: SK-MEL-5 melanoma
SNB-75 CNS = system: SNB-75 CNS
OVCAR-5 ovarian = system: OVCAR-5 ovarian
HL-60(TB) leukemia = system: HL-60(TB) leukemia
HCC-2998 colon = system: HCC-2998 colon
SN12C renal = system: SN12C renal
MDA-MB-468 breast = system: MDA-MB-468 breast
SF-539 CNS = system: SF-539 CNS
M14 melanoma = system: M14 melanoma
SW-620 colon = system: SW-620 colon
NCI-H226 lung = system: NCI-H226 lung
UACC-257 melanoma = system: UACC-257 melanoma
OVCAR-3 ovarian = system: OVCAR-3 ovarian
NCI-H522 lung = system: NCI-H522 lung
SK-MEL-28 melanoma = system: SK-MEL-28 melanoma
MDA-MB-435 = system: MDA-MB-435
SF-295 CNS = system: SF-295 CNS
MALME-3M melanoma = system: MALME-3M melanoma
K-562 leukemia = system: K-562 leukemia
TK-10 renal = system: TK-10 renal
RPMI-8226 leukemia = system: RPMI-8226 leukemia
SR leukemia = system: SR leukemia
SNB-19 CNS = system: SNB-19 CNS
A549 NSCLC = system: A549 NSCLC
786-0 renal = system: 786-0 renal
UACC-62 melanoma = system: UACC-62 melanoma
HS 578T breast = system: HS 578T breast
A498 renal = system: A498 renal
IGROV1 ovarian = system: IGROV1 ovarian
NCI-H460 lung = system: NCI-H460 lung
HOP-92 NSCLC = system: HOP-92 NSCLC
HOP-62 NSCLC = system: HOP-62 NSCLC
UO-31 renal = system: UO-31 renal
CCRF-CEM leukemia = system: CCRF-CEM leukemia
DU-145 prostate = system: DU-145 prostate
MOLT-4 leukemia = system: MOLT-4 leukemia
SF-268 CNS = system: SF-268 CNS
NCI/ADR-RES ovarian = system: NCI/ADR-RES ovarian
CAKI-1 renal = system: CAKI-1 renal
MCF7 breast = system: MCF7 breast
SK-OV-3 ovarian = system: SK-OV-3 ovarian
PC-3 prostate = system: PC-3 prostate
RXF 393 renal = system: RXF 393 renal
U251 CNS = system: U251 CNS
KM12 colon = system: KM12 colon
COLO 205 colon = system: COLO 205 colon
HCT-116 colon = system: HCT-116 colon
MDA-MB-231 breast = system: MDA-MB-231 breast
SK-MEL-2 melanoma = system: SK-MEL-2 melanoma
HT29 colon = system: HT29 colon
T-47D breast = system: T-47D breast
EKVX NSCLC = system: EKVX NSCLC
ACHN renal = system: ACHN renal
HCT-15 colon = system: HCT-15 colon
NCI-H23 lung = system: NCI-H23 lung

## N#C/C(=C1/C(=O)Nc2ccccc21)c1nnc(NC(=O)c2ccc(-n3c(=O)[nH]c4ccccc4c3=O)cc2)s1
BT-549 breast
  GI50: 39.4 µM
  TGI: > 100 µM
OVCAR-4 ovarian
  GI50: 23.1 µM
  TGI: > 100 µM
OVCAR-8 ovarian
  GI50: 67.6 µM
  TGI: > 100 µM
LOX IMVI melanoma
  GI50: 21.6 µM
  TGI: > 100 µM
SK-MEL-5 melanoma
  GI50: 32.2 µM
  TGI: > 100 µM
SNB-75 CNS
  GI50: 16.2 µM
  TGI: > 100 µM
OVCAR-5 ovarian
  GI50: > 100 µM
  TGI: > 100 µM
HL-60(TB) leukemia
  GI50: 13.6 µM
  TGI: 45.4 µM
HCC-2998 colon
  GI50: 39.8 µM
  TGI: > 100 µM
SN12C renal
  GI50: 58.3 µM
  TGI: > 100 µM
MDA-MB-468 breast
  GI50: 11 µM
  TGI: 56.1 µM
SF-539 CNS
  GI50: 48.3 µM
  TGI: > 100 µM
M14 melanoma
  GI50: 41.2 µM
  TGI: > 100 µM
SW-620 colon
  GI50: 29.5 µM
  TGI: > 100 µM
NCI-H226 lung
  GI50: 17.6 µM
  TGI: > 100 µM
UACC-257 melanoma
  GI50: 46.2 µM
  TGI: > 100 µM
OVCAR-3 ovarian
  GI50: 10.9 µM
  TGI: 71.6 µM
NCI-H522 lung
  GI50: 13.2 µM
  TGI: 71.7 µM
SK-MEL-28 melanoma
  GI50: 65.9 µM
  TGI: > 100 µM
MDA-MB-435
  GI50: 17.2 µM
  TGI: 35.8 µM
SF-295 CNS
  GI50: 45.9 µM
  TGI: > 100 µM
MALME-3M melanoma
  GI50: 45.6 µM
  TGI: > 100 µM
K-562 leukemia
  GI50: 26.1 µM
  TGI: > 100 µM
TK-10 renal
  GI50: > 100 µM
  TGI: > 100 µM
RPMI-8226 leukemia
  GI50: 27.1 µM
  TGI: > 100 µM
SR leukemia
  GI50: 33.1 µM
  TGI: > 100 µM
SNB-19 CNS
  GI50: > 100 µM
  TGI: > 100 µM
A549 NSCLC
  GI50: 54.7 µM
  TGI: > 100 µM
786-0 renal
  GI50: > 100 µM
  TGI: > 100 µM
UACC-62 melanoma
  GI50: 47.4 µM
  TGI: > 100 µM
HS 578T breast
  GI50: 27.4 µM
  TGI: > 100 µM
A498 renal
  GI50: > 100 µM
  TGI: > 100 µM
IGROV1 ovarian
  GI50: 40.5 µM
  TGI: > 100 µM
NCI-H460 lung
  GI50: 26 µM
  TGI: > 100 µM
HOP-92 NSCLC
  GI50: 33.8 µM
  TGI: > 100 µM
HOP-62 NSCLC
  GI50: > 100 µM
  TGI: > 100 µM
UO-31 renal
  GI50: 31.8 µM
  TGI: > 100 µM
CCRF-CEM leukemia
  GI50: 22.2 µM
  TGI: 64.5 µM
DU-145 prostate
  GI50: 53.6 µM
  TGI: > 100 µM
MOLT-4 leukemia
  GI50: 20.7 µM
  TGI: 60.9 µM
SF-268 CNS
  GI50: 34.9 µM
  TGI: > 100 µM
NCI/ADR-RES ovarian
  GI50: 33.8 µM
  TGI: > 100 µM
CAKI-1 renal
  GI50: 39 µM
  TGI: > 100 µM
MCF7 breast
  GI50: 18.3 µM
  TGI: > 100 µM
SK-OV-3 ovarian
  GI50: > 100 µM
  TGI: > 100 µM
PC-3 prostate
  GI50: 30.3 µM
  TGI: > 100 µM
RXF 393 renal
  GI50: 14.5 µM
  TGI: > 100 µM
U251 CNS
  GI50: > 100 µM
  TGI: > 100 µM
KM12 colon
  GI50: 33.4 µM
  TGI: > 100 µM
COLO 205 colon
  GI50: 22.1 µM
  TGI: 79.8 µM
HCT-116 colon
  GI50: 32.6 µM
  TGI: > 100 µM
MDA-MB-231 breast
  GI50: 38.4 µM
  TGI: > 100 µM
SK-MEL-2 melanoma
  GI50: > 100 µM
  TGI: > 100 µM
HT29 colon
  GI50: 31.7 µM
  TGI: > 100 µM
T-47D breast
  GI50: 11.2 µM
  TGI: > 100 µM
EKVX NSCLC
  GI50: 46.1 µM
  TGI: > 100 µM
ACHN renal
  GI50: 53.8 µM
  TGI: > 100 µM
HCT-15 colon
  GI50: 27.3 µM
  TGI: > 100 µM
NCI-H23 lung
  GI50: 45.2 µM
  TGI: > 100 µM

## CCCn1cc(-c2nc(Nc3ccc(C(=O)NCCCCNc4cccc5c4C(=O)N(C4CCC(=O)NC4=O)C5=O)cc3)nc3[nH]ccc23)cn1 (stereo not drawn)
BT-549 breast
  GI50: < 0.01 µM
  TGI: < 0.01 µM
OVCAR-4 ovarian
  GI50: 0.0354 µM
  TGI: > 100 µM
OVCAR-8 ovarian
  GI50: < 0.01 µM
  TGI: > 100 µM
LOX IMVI melanoma
  GI50: > 100 µM
  TGI: > 100 µM
SK-MEL-5 melanoma
  GI50: 0.03 µM
  TGI: 0.188 µM
SNB-75 CNS
  GI50: < 0.01 µM
  TGI: 2.06 µM
OVCAR-5 ovarian
  GI50: 0.243 µM
  TGI: > 100 µM
HL-60(TB) leukemia
  GI50: < 0.01 µM
  TGI: 0.516 µM
HCC-2998 colon
  GI50: < 0.01 µM
  TGI: > 100 µM
SN12C renal
  GI50: 0.0166 µM
  TGI: > 100 µM
MDA-MB-468 breast
  GI50: < 0.01 µM
  TGI: < 0.01 µM
SF-539 CNS
  GI50: 0.0676 µM
  TGI: > 100 µM
M14 melanoma
  GI50: 0.0817 µM
  TGI: > 100 µM
SW-620 colon
  GI50: < 0.01 µM
  TGI: > 100 µM
NCI-H226 lung
  GI50: 0.0319 µM
  TGI: > 100 µM
UACC-257 melanoma
  GI50: > 100 µM
  TGI: > 100 µM
OVCAR-3 ovarian
  GI50: 0.424 µM
  TGI: > 100 µM
NCI-H522 lung
  GI50: > 100 µM
  TGI: > 100 µM
SK-MEL-28 melanoma
  GI50: 0.123 µM
  TGI: > 100 µM
MDA-MB-435
  GI50: 0.0686 µM
  TGI: > 100 µM
SF-295 CNS
  GI50: 0.209 µM
  TGI: > 100 µM
MALME-3M melanoma
  GI50: < 0.01 µM
  TGI: < 0.01 µM
K-562 leukemia
  GI50: 0.0368 µM
  TGI: > 100 µM
RPMI-8226 leukemia
  GI50: 0.157 µM
  TGI: > 100 µM
SR leukemia
  GI50: 0.319 µM
  TGI: > 100 µM
SNB-19 CNS
  GI50: < 0.0124 µM
  TGI: > 100 µM
A549 NSCLC
  GI50: 0.119 µM
  TGI: > 100 µM
786-0 renal
  GI50: 0.136 µM
  TGI: > 100 µM
UACC-62 melanoma
  GI50: > 100 µM
  TGI: > 100 µM
HS 578T breast
  GI50: < 0.01 µM
  TGI: > 100 µM
A498 renal
  GI50: 0.157 µM
  TGI: > 100 µM
IGROV1 ovarian
  GI50: 0.0117 µM
  TGI: > 100 µM
NCI-H460 lung
  GI50: > 100 µM
  TGI: > 100 µM
HOP-92 NSCLC
  GI50: < 0.01 µM
  TGI: < 0.01 µM
CCRF-CEM leukemia
  GI50: < 0.01 µM
  TGI: < 0.01 µM
DU-145 prostate
  GI50: > 100 µM
  TGI: > 100 µM
MOLT-4 leukemia
  GI50: < 0.01 µM
SF-268 CNS
  GI50: 0.0257 µM
  TGI: > 100 µM
NCI/ADR-RES ovarian
  GI50: > 100 µM
  TGI: > 100 µM
CAKI-1 renal
  GI50: 0.19 µM
  TGI: > 100 µM
MCF7 breast
  GI50: 0.0339 µM
  TGI: > 100 µM
SK-OV-3 ovarian
  GI50: 0.425 µM
  TGI: > 100 µM
U251 CNS
  GI50: 0.589 µM
  TGI: > 100 µM
KM12 colon
  GI50: 0.0374 µM
  TGI: > 100 µM
HCT-116 colon
  GI50: 27.4 µM
  TGI: > 100 µM
MDA-MB-231 breast
  GI50: < 0.01 µM
  TGI: < 0.01 µM
SK-MEL-2 melanoma
  GI50: 0.0536 µM
  TGI: > 100 µM
HT29 colon
  GI50: 0.166 µM
  TGI: > 100 µM
EKVX NSCLC
  TGI: > 100 µM
ACHN renal
  GI50: > 100 µM
  TGI: > 100 µM
NCI-H23 lung
  GI50: 18.6 µM
  TGI: > 100 µM
